Measured values reported in patent publication US3962269A, “1,3-Propandiol intermediates” (Eli Lilly and Company, priority 1975, dated 1976).
Where a name gives a salt, the structure may show the parent alone.

Experiments:
[1] = mouse writhing assay (acetic acid), analgesic activity; assay type: in vivo, mouse (Cox standard males); conditions: for ED50 / PT (peak analgesic time), Mouse Writhing, Oral / PT (peak analgesic time), Mouse Writhing, Subcutaneous: mouse; for ED50: dose giving significant peak analgesic effect in 50 percent of test animals; for PT (peak analgesic time), Mouse Writhing, Oral / PT (peak analgesic time), Mouse Writhing, Subcutaneous: time after dosing of maximum analgesic response
Experimental: Analgesic activity for representative compounds of the instant invention was determined with two standard animal techniques. The mouse writhing assay used was a modification of the method wherein frequency of writhing [Hendershot and Sorsaith, J. Pharm. Exp. Ther. 125, 237 (1959)] is observed after intra peritoneal administration of 0.6 percent acetic acid [Koster et al., Fed. Proc. Soc. Expt. Biol. 18, 412 (1959)]. The mice were Cox standard males weighting 20-22 gm. The number of writhes was determined for each of five mice during the period 5-15 minutes after acetic acid treatment. The percent inhibition due to drug treatment was determined by comparison with control mice.
(§1) Table 1 below gives the results of testing representative compounds of this invention as analgesics by the above methods. The first four columns in Table 1 describe the particular compound tested. The next eight columns give the mouse writhing results and the rat tail jerk results both by oral and subcutaneous administration. The columns headed PT ("Peak Analgesic Time") give the time in minutes after dosing at which the maximum analgesic responses are measured. The columns headed "ED50 (mg./kg.)" give the doses (ED50) in milligrams per kilogram (mg./kg.) of body weight that produce a significant peak analgesic effect in 50 percent of test animals.

[2] = rat tail jerk assay, analgesic activity; assay type: in vivo, rat (Sprague-Dawley females); conditions: for ED50: dose giving significant peak analgesic effect in 50 percent of test animals; for PT (peak analgesic time), Rat Tail Jerk, Oral / PT (peak analgesic time), Rat Tail Jerk, Subcutaneous: time after dosing of maximum analgesic response
Source text: The other analgesic method was the rat tail jerk assay described by Robbins, J. Amer. Pharm. Assoc. Sci. Ed., 44, 497 (1955). The rats were Sprague-Dawley females weighing 70-90 g. Briefly, the tail was held on a temperature controlled tail rest near a nichrome resistance wire through which a current could flow. A switch used to start the flow of current to heat the wire simultaneously started a timer. When a jerk of the tail was detected by the operator, the switch was released and the latency of the response was recorded as the "reaction time." The tail was placed near the hot wire stimulus for a maximum duration of 30 seconds. Twenty rats were tested as a group in a randomized order. At least five rats were used for each treatment and each rat was dosed and tested only once.
as §1

[3] = analgesic activity, general statements; assay type: in vivo; conditions: in words
[4] = cited from earlier work
[5] = oral, read-out: ED50, Mouse Writhing, Oral
[6] = sc, subcutaneous, read-out: ED50, Mouse Writhing, Subcutaneous
[7] = oral, read-out: ED50, Rat Tail Jerk, Oral
[8] = sc, subcutaneous, read-out: ED50, Rat Tail Jerk, Subcutaneous

Row | Compound | ED50 [1, 5] | PT (peak analgesic time), Mouse Writhing, Oral ([1]; oral) | PT (peak analgesic time), Mouse Writhing, Subcutaneous ([1]; subcutaneous) | ED50 [1, 6] | ED50 [2, 7] | PT (peak analgesic time), Rat Tail Jerk, Oral ([2]; oral) | ED50 [2, 8] | PT (peak analgesic time), Rat Tail Jerk, Subcutaneous ([2]; subcutaneous) | analgesic activity [3] | analgesic activity (literature) [4] | side effects (literature) [4] | duration of analgesic action in mice ([1]; mice)
1 | CN(C)C(c1cccnc1)C1COCOC1.Cl.Cl (stereo not drawn) [dl 3-pyridyl, H, 2HCl, N,N-dimethyl-α-(3-pyridyl)-m-dioxane-5-methylamine dihydrochloride] | 25 mg/kg | 30 min | 30 min | 10 mg/kg | 7 mg/kg | 15 min | 7 mg/kg | 15 min | – | – | – | –
2 | CN(C)C(c1ccccc1)C1COCOC1 (single isomer, unassigned) [l C6 H5, H, HCl, l-N,N-dimethyl-α-phenyl-m-dioxane-5-methylamine hydrochloride] | 16 mg/kg | 15 min | 15 min | 6 mg/kg | 10 to 20 mg/kg | 15 min | 7 mg/kg | 15 min | – | – | – | –
3 | CC1OCC(C(c2ccccc2)N(C)C)CO1 (stereo not drawn) [dl C6 H5, CH3, N,N,2-Trimethyl-α-phenyl-m-dioxane-5-methylamine] | 19 mg/kg | 15 min | 15 min | 3.6 mg/kg | 12 mg/kg | 15 min | 2.8 mg/kg | 20 min | – | – | – | –
4 | CN(C)C(c1ccccc1)C1COCOC1 (single isomer, unassigned) [1-N,N-dimethyl-α-phenyl-m-dioxane-5-methylamine] | – | – | – | – | – | – | – | – | analgesically active | – | – | –
5 | CC1OCC(CN(C)C)O1 (stereo not drawn) [N,N,2-Trimethyl-1,3-dioxolane-4-methylamine] | – | – | – | – | – | – | – | – | – | mild analgesic | cholinergic side effects | –
6 | c1ccc(C2(c3ccccc3)OC[C@H]([C@@H]3CCCCN3)O2)cc1 [Dexoxadrol, d-2,2-diphenyl-4-(2-piperdyl)-1,3-dioxolane hydrochloride] | – | – | – | – | – | – | – | – | – | mild analgesic | high incidence of psychotomimetic side effects | –
7 | CN(C)C(c1ccccc1)C1COCOC1.Cl (stereo not drawn) [dl C6 H5, H, HCl, N,N-dimethyl-α-phenyl-m-dioxane-5-methylamine hydrochloride] | 28 mg/kg | 45 min | 15 min | 15 mg/kg | 27 mg/kg | 15 min | 4.5 mg/kg | 15 min | – | – | – | –
8 | CCC1OCC(C(c2ccccc2)N(C)C)CO1 (stereo not drawn) [dl C6 H5, C2 H5, N,N-dimethyl-2-ethyl-α-phenyl-m-dioxane-5-methylamine] | 23 mg/kg | 75 min | 75 min | 19 mg/kg | 21 mg/kg | 15 min | 3.4 mg/kg | 15 min | – | – | – | long acting in mice
9 | Cc1ccc(C(C2COCOC2)N(C)C)cc1.O=C(O)/C=C\C(=O)O (stereo not drawn) [dl 4-CH3 --C6 H4, H, Maleate, N,N-dimethyl-α-(4-methylphenyl)-m-dioxane-5-methylamine maleate] | 110 mg/kg | 45 min | 30 min | 20 mg/kg | 60 mg/kg | 45 min | 8 mg/kg | 30 min | – | – | – | –
